Assay results: paper PMC11537802, “The Neuroprotection of 1,2,4‐Triazole Derivative by Inhibiting Inflammation and Protecting BBB Integrity in Acute Ischemic Stroke” (CNS Neuroscience & Therapeutics, 2024)

Tests used:
Format in all cases: in vivo, Sprague–Dawley rats
IL‐1β = experiment: serum IL-1β in MCAO rats (ELISA); details: 15 mg/kg, 48 h, p < 0.05
Method: (§1) Rats were randomly divided into five groups: Sham group (n = 24), rats received sham operation; MCAO model group (n = 30); SYS18 low‐dose group (7.5 mg/kg, n = 30); SYS18 high‐dose group (15 mg/kg, n = 30); and Positive control group rats were intraperitoneally injected with edaravone (15 mg/kg, n = 30). The tested compound was dissolved in 20% polyoxyethylene castor oil and was administered 0.5 h before operation and 6, 12, 24, and 36 h after reperfusion. The measurements were carried out 48 h after the operation. Ten animals in each group were used to measure brain water content, and 10 animals in each group were used to detect Evans blue content in brain tissue. Ten animals in each group were used for determination of biochemical indicators and pathological observations and WB experiments.
(§2) Blood sample was collected at 48 h after MCAO. After centrifugation at 4°C × 12,000 g for 10 min, the clear supernatant was stored at −80°C. The components of SOD, MDA, TNF‐α, and IL‐1β in the blood samples were measured according to the instructions of the assay kits.

MCAO rats [1] = experiment: brain water content (dry/wet weight) in MCAO rats; details: 15 mg/kg (SYS18 high dose; edaravone), 48 h reperfusion, model 83.18% ± 0.71%
Method: as §1
The brain water content was evaluated by measuring difference between the dry and wet weights of brains. Briefly, after rats were sacrificed after 48 h of reperfusion, the brains were measured immediately to obtain the wet weights. Then, the brains were drying in a constant temperature oven at 100°C for 24 h, followed by measurements to obtain the dry weights. Brain water content was calculated according to the following formula, brain water content = 100% × (wet weight − dry weight)/wet weight.

MCAO rats [2] = experiment: blood–brain barrier permeability (Evans blue content in brain) in MCAO rats; details: 15 mg/kg (SYS18 high dose; or edaravone positive control), 48 h
Method: as §1
The integrity of the BBB was investigated using Evans blue (EB). Forty‐six hours after reperfusion, rats were injected with EB (4% saline, 4 mL/kg) via the tail vein. Two hours later, rats were anesthetized and perfused with saline through the left ventricle until colorless perfusate. After hydrangea and brainstem were removed, the brains were collected and homogenized. Evans blue was extracted from the brain with N,N‐dimethylformamide. After centrifugation at 3700 rpm for 15 min, the absorbance of supernatant was detected at 620 nm wavelength.

TNF‐α = experiment: serum TNF-α in MCAO rats (ELISA); details: 15 mg/kg, 48 h, p < 0.05
Method: as §1, §2

SOD = experiment: serum SOD in MCAO rats (kit); details: 15 mg/kg, 48 h
Method: as §1, §2

MCAO rats [3] = experiment: neurological score (Zea-Longa) in MCAO rats; details: 15 mg/kg (SYS18 high dose; edaravone i.p.), 48 h after surgery, model 2.42 ± 0.84, p < 0.01
Excerpt: C57BL/6 mice were randomly assigned to treatment groups by body weight. Operator blind to treatment status of animals. After the mice were anesthetized, a midline cervical incision was made. The left common carotid artery and external carotid artery were isolated and ligated. Arterial clamps were placed at the preparation line and distal end of the internal carotid artery. An incision was made at the bifurcation of the common carotid artery. 4–0 nylon line was inserted to a depth of 17–20 mm. The nylon line entered the internal carotid artery; then, it entered the skull to the anterior cerebral artery and blocked all blood flow sources in the middle cerebral artery. After keeping ischemic for 1 h, the animals were re‐anesthetized and then pulled out the nylon line for about 1 cm to achieve reperfusion for up to 48 h. The wound was disinfected with iodophor, and the skin was sutured. Put them on the electric blanket to maintain the body temperature after the completion of surgery; then, they were returned to cages upon recovery. For the sham group, except that no nylon line is inserted, other steps are the same as above. Sham group and model group were given 20% polyoxyethylene castor oil. Subsequently, the animals were sacrificed, and the serum and brains were collected for a series of subsequent analyses and studies.
Rats were randomly divided into five groups: Sham group (n = 24), rats received sham operation; MCAO model group (n = 30); SYS18 low‐dose group (7.5 mg/kg, n = 30); SYS18 high‐dose group (15 mg/kg, n = 30); and Positive control group rats were intraperitoneally injected with edaravone (15 mg/kg, n = 30). […]
According to Zea‐Longa 4‐point scoring criteria, the animals were scored for neurological function at 48 h after surgery. […] And the degree of each animal model was scored as follows: 0 point, no symptoms of nerve injury; 1 point, inability to fully extend the forepaw; 2 points, circling laterally; 3 points, tip to the opposite side; 4 points, inability to walk spontaneously and loss of consciousness. […]

CC1=NN(c2ccccc2)C(=O)C1 [edaravone, reference compound]
IL-1β in serum vs model group (IL‐1β): significantly decreased
brain water content (MCAO rats [1]): 81.13% ± 1.98%
Evans blue content in brain tissue (MCAO rats [2]): 6.20 ± 2.76 µg/g
TNF-α in serum vs model group (TNF‐α): significantly decreased
SOD level in serum vs model group (SOD): could improve SOD level in serum
neurological score (MCAO rats [3]): 1.50 ± 0.61
